The results in this text go back to ChEMBL document CHEMBL3044985, “Novel antitubercular diallyl/dibenzylthiosemicarbazones endowed with high activity toward multi-drug-resistant tuberculosis” (Med Chem Res, 2012).

Data set [1] in a line: Cytotoxicity against Chlorocebus aethiops (African green monkey) Vero cells assessed as cell viability after 72 hr by MTT assay. The data set is classed as cell-based. To be noted: chlorocebus sabaeus. In general terms: Tetrazolium assays rely on reduction of a dye to a coloured formazan, in cell work by metabolically active cells.
Data set [2] concerns Mycobacterium tuberculosis. Briefly: Antitubercular activity against Mycobacterium tuberculosis H37Rv by NCCLS agar dilution method. The data set is classed as functional. A general note: In agar dilution, organisms are placed on agar that contains the substance at set levels.
In data set [3] the test system is Mycobacterium tuberculosis. Briefly: Ratio of ethambutol MIC to compound MIC for Mycobacterium tuberculosis H37Rv. The data set is classed as functional.
For data set [4], the system named is Mycobacterium tuberculosis. Briefly: Ratio of isoniazid MIC to compound MIC for Mycobacterium tuberculosis H37Rv. In kind it is functional.
Data set [5] can be described thus: Selectivity index, ratio of CC50 for african green monkey Vero cells to MIC for Mycobacterium tuberculosis H37Rv. The data set is classed as toxicity, cell-based. To be noted: read-out: Selectivity Index.
Data set [6] has as its system Mycobacterium tuberculosis. Briefly: Ratio of ofloxacin MIC to compound MIC for Mycobacterium tuberculosis H37Rv. The data set is classed as functional.

In brackets after ≈: the same amount, converted by molar mass. A value given as a limit tells only on which side of the number the result lay.

By CC50 is commonly meant the concentration at which the toxic effect on the cells reaches its halfway point. As usually defined, the MIC is the lowest concentration found to suppress growth. Consider `C/C(=N/NC(=S)N(Cc1ccccc1)Cc1ccccc1)c1ccc([N+](=O)[O-])cc1`, for which, in data set [1], the CC50 at 72 h was less than 149 µM. Moreover, it took 3.72 µM (≈ 1.56 µg/mL) to inhibit growth in data set [2] (MIC).
The like results for `S=C(N/N=C\c1ccccc1)N(Cc1ccccc1)Cc1ccccc1` were, in that order, 174 µM and 17.4 µM (≈ 6.26 µg/mL).
On the same counts, the results for `C/C(=N/NC(=S)N(Cc1ccccc1)Cc1ccccc1)c1ccccc1O` are 160 µM and 8.03 µM (≈ 3.13 µg/mL).
The like results for `C=CCN(CC=C)C(=S)N/N=C(/C)c1ccc(F)cc1` were, in that order, 214 µM and 10.7 µM (≈ 3.13 µg/mL).
Regarding `C=CCN(CC=C)C(=S)N/N=C(/C)c1ccc([N+](=O)[O-])cc1`, the CC50 at 72 h in data set [1] is less than 196 µM. Further, the MIC in data set [2] is 9.83 µM (≈ 3.13 µg/mL).
On the same counts, the results for `C/C(=N/NC(=S)N(Cc1ccccc1)Cc1ccccc1)c1ccc(O)cc1` are 160 µM and 16.1 µM (≈ 6.26 µg/mL).
On the same counts, the results for `S=C(NN=C(c1ccccc1)c1ccccc1)N(Cc1ccccc1)Cc1ccccc1` are 143 µM and 3.58 µM (≈ 1.56 µg/mL).
On to `C=CCN(CC=C)C(=S)N/N=C\c1ccc(Cl)cc1`, for which the CC50 at 72 h in data set [1] amounted to 213 µM. In data set [2], 5.3 µM (≈ 1.56 µg/mL) was the least that counted as inhibitory (MIC).
For the molecule `C/C(=N/NC(=S)N(Cc1ccccc1)Cc1ccccc1)c1ccccc1`, in data set [1], the CC50 at 72 h was determined as 167 µM. In data set [2], this molecule showed a minimal inhibitory concentration (MIC) of 16.7 µM (≈ 6.25 µg/mL).
On the same counts, the results for `CC1COc2c(N3CCN(C)CC3)c(F)cc3c(=O)c(C(=O)O)cn1c23` (configuration not stated) [OFLOXACIN] are more than 155 µM and 2.13 µM (≈ 0.77 µg/mL).
The like results for `C=CCN(CC=C)C(=S)N/N=C\c1ccc([N+](=O)[O-])o1` were, in that order, less than 212 µM and 2.65 µM (≈ 0.78 µg/mL).
`C=CCN(CC=C)C(=S)N/N=C(/C)CC`: inhibition of growth in data set [2] (MIC) required 111 µM (≈ 25 µg/mL).
As for `C=CCN(CC=C)C(=S)N/N=C\c1ccccc1C`, the CC50 at 72 h in data set [1] was more than 229 µM. This molecule displayed an MIC in data set [2] of 22.9 µM (≈ 6.25 µg/mL).
Molecule `C=CCN(CC=C)C(=S)N/N=C\c1ccccc1` returned a minimum inhibitory concentration (MIC) in data set [2] of 48.2 µM (≈ 12.5 µg/mL).
On to `S=C(N/N=C\c1ccc(Cl)cc1)N(Cc1ccccc1)Cc1ccccc1`, for which, in data set [1], the CC50 at 72 h came out at 159 µM. Besides, the MIC in data set [2] is 1.98 µM (≈ 0.78 µg/mL).
In the case of `C=CCN(CC=C)C(=S)N/N=C\c1ccccc1O`, the MIC in data set [2] worked out at 45.4 µM (≈ 12.5 µg/mL).
`O=[N+]([O-])c1ccc(/C=N\NC(=S)N(Cc2ccccc2)Cc2ccccc2)o1`: the CC50 at 72 h in data set [1] came to 158 µM. For the same molecule, the MIC in data set [2] was determined as 0.5 µM (≈ 0.197 µg/mL). In addition, the Ratio in data set [3] was found to be 9.4; in data set [4] it was 1.3; in data set [6], 4.2. Moreover, the selectivity ratio in data set [5] was more than 316.
`C=CCN(CC=C)C(=S)N/N=C(/C)c1ccccc1`: the cytotoxic concentration (CC50) at 72 h in data set [1] stood at 229 µM. Also, it took 22.9 µM (≈ 6.25 µg/mL) to inhibit growth in data set [2] (MIC).
On the same counts, the results for `C=CCN(CC=C)C(=S)N/N=C(/C)c1ccc(O)cc1` are 216 µM and 21.6 µM (≈ 6.25 µg/mL).
For `O=[N+]([O-])c1ccccc1/C=N\NC(=S)N(Cc1ccccc1)Cc1ccccc1`, in data set [1], the cytotoxic concentration (CC50) at 72 h is less than 155 µM. The molecule further came in with an MIC in data set [2] of 3.85 µM (≈ 1.56 µg/mL).
Consider `Cc1ccccc1/C=N\NC(=S)N(Cc1ccccc1)Cc1ccccc1`, for which the CC50 at 72 h in data set [1] amounted to 167 µM. For the same molecule, it took 8.38 µM (≈ 3.13 µg/mL) to inhibit growth in data set [2] (MIC).
On the same counts, the results for `CC[C@@H](CO)NCCN[C@@H](CC)CO` [ETHAMBUTOL] are more than 188 µM and 4.71 µM (≈ 0.962 µg/mL).
On to `C=CCN(CC=C)C(=S)N/N=C(/C)c1ccc(N)cc1`, for which, in data set [2], the minimum inhibitory concentration (MIC) was found to be 43.3 µM (≈ 12.5 µg/mL).
Regarding `C=CCN(CC=C)C(=S)N/N=C\c1ccc([N+](=O)[O-])cc1`, in data set [1], the half-maximal cytotoxic concentration (CC50) at 72 h is less than 205 µM. Also, 2.56 µM (≈ 0.779 µg/mL) was the least that counted as inhibitory in data set [2] (MIC).
On the same counts, the results for `C/C(=N/NC(=S)N(Cc1ccccc1)Cc1ccccc1)c1ccc(N)cc1` are 161 µM and 16.1 µM (≈ 6.25 µg/mL).
On the same counts, the results for `C=CCN(CC=C)C(=S)NN=C(c1ccccc1)c1ccccc1` are 186 µM and 9.33 µM (≈ 3.13 µg/mL).
`C/C(=N/NC(=S)N(Cc1ccccc1)Cc1ccccc1)c1ccc(F)cc1`: in data set [1], the cytotoxic concentration (CC50) at 72 h came to 160 µM. Besides, it took 7.99 µM (≈ 3.13 µg/mL) to inhibit growth in data set [2] (MIC).
Regarding `CC/C(C)=N\NC(=S)N(Cc1ccccc1)Cc1ccccc1`, the minimum inhibitory concentration (MIC) in data set [2] was found to be 76.8 µM (≈ 25 µg/mL).
Take `C=CCN(CC=C)C(=S)N/N=C(/C)c1ccccc1O`: the CC50 at 72 h in data set [1] amounted to 216 µM. Besides, inhibition of growth in data set [2] (MIC) required 21.6 µM (≈ 6.25 µg/mL).
The like results for `C=CCN(CC=C)C(=S)N/N=C\c1ccccc1[N+](=O)[O-]` were, in that order, 205 µM and 5.12 µM (≈ 1.56 µg/mL).
The like results for `CO[C@H]1/C=C/O[C@@]2(C)Oc3c(C)c(O)c4c(O)c(c(/C=N/N5CCN(C)CC5)c(O)c4c3C2=O)NC(=O)/C(C)=C\C=C\[C@H](C)[C@H](O)[C@@H](C)[C@@H](O)[C@@H](C)[C@H](OC(C)=O)[C@@H]1C` [RIFAMPIN] were, in that order, more than 75.9 µM and 0.23 µM (≈ 0.189 µg/mL).
Consider `Oc1ccccc1/C=N\NC(=S)N(Cc1ccccc1)Cc1ccccc1`, for which the CC50 at 72 h in data set [1] came to 166 µM. The same molecule yielded a minimum inhibitory concentration (MIC) in data set [2] of 8.33 µM (≈ 3.13 µg/mL).
`NNC(=O)c1ccncc1` [ISONIAZID]: in data set [1], the CC50 at 72 h is more than 456 µM. Further, in data set [2], it took 0.66 µM (≈ 0.0905 µg/mL) to inhibit growth (MIC).
The like results for `O=[N+]([O-])c1ccc(/C=N\NC(=S)N(Cc2ccccc2)Cc2ccccc2)cc1` were, in that order, less than 155 µM and 0.98 µM (≈ 0.396 µg/mL).
